# Read-outs that look alike come from different tables or passages of the source.
# Legend:
# [1] = test system: patients without known diabetes but with vascular disease; conditions: study participants without known diabetes at randomization (N Engl J. Med. 2000); cited from earlier work
# [2] = patients with diabetes in HOPE, serial annual recordings, first 2 years; cited from earlier work
# [3] = SECURE study, P=0.03, cited from earlier work
# [4] = test system: patients without known diabetes but with vascular disease; assay: Heart Outcomes Prevention Evaluation (HOPE) trial: new diagnosis of diabetes; type: in vivo, human; conditions: for New Diabetes With Glycated Hemoglobulin ≧ 110%, ULN, RR (85%) CI) / New Diabetes With Oral Agents or Insulin, RR (85%) CI) / New Diabetes With Oral Agents or insulin and Glycated Hemoglobulin ≧ 110%, ULN, RR (85%) CI) / New Diabetes, RR (85%) CI): vs placebo
# Description: The design of the Heart Outcomes Prevention Evaluation (HOPE) trial has been described in detail in previous publications. Briefly, individuals who were 55 years or older with no evidence of left ventricular dysfunction or heart failure and who had evidence of vascular disease or who had diabetes and one other risk factor were eligible as long as they had no indication or contraindication to receiving an ACE-inhibitor. The study was conducted in 26 hospitals in 19 countries from 1994 to 1999. All patients provided written informed consent.
# Of 10576 eligible patients who participated in a run-in period during which they received 2.5 mg ramipril once daily for 1 week followed by matching placebo for 10 to 14 days, 1035 (9.8%) were excluded from randomization (3.2% for side effects, 3.7% for lack of consent). […] In the following it is primarily foccuessed on the latter group of patients. Of these patients, 5720 were randomized to receive up to 10 mg of ramipril once per day or equivalent placebo. One hundred sixty-seven patients who were randomized to receive a low dose (2.5 mg/day) of ramipril as part of the Study to Evaluate Carotid Ultrasound changes with Ramipril and Vitamin E (SECURE). Substudy results are not included. All randomized patients were also randomized to receive 400 IU of Vitamin E or placebo.
# Follow-up visits occurred at 1 month and 6 months after randomization and then every 6 months (mean follow-up of 4.5 years). At each visit, it was documented whether the diagnosis of diabetes had been made since the last visit.
# The primary outcome of this analysis is a new diagnosis of diabetes recorded on the basis of self-report. […] Hemoglobin A1c (HbA1c) levels and medications used among those diagnosed as having diabetes were also recorded. The HbA1c levels; were determined locally. Values higher than 110% of the upper limit of normal for each laboratory were considered to be biochemical confirmation of diabetes.
# Survival curves utilizing the Kaplan Meier and log-rank procedures were used to describe and compare the results in the 2 treatment groups. Because of the factorial design, all analyses were stratified for randomization to vitamin E or placebo. Subgroup analyses were conducted using tests of interaction in the Cox regression model.
# Design, Setting and Participants: The randomized, controlled Heart Outcomes Prevention Evaluation trial of 5720 patients older than 55 years without known diabetes but with vascular disease who were followed up for a mean of 4.5 years. The study included 267 hospitals in 19 countries and was conducted between 1994 and 1999.
# Intervention: Patients were randomly assigned to receive ramipril, up to 10 mg/d (n=2837), or placebo (n=2883).
# Main Outcome Measure: Diagnosis of diabetes determined from self-report at follow-up visits every 6 months, compared between the 2 groups.
# [5] = test system: people at high risk, with and without a diagnosis of diabetes; conditions: cited from earlier work
# [6] = ramipril up to 10 mg/d (n=2837), mean follow-up 4.5 years
# [7] = subgroup Body mass index >27.7 Kg/m^2
# [8] = subgroup Without microalbuminuria
compound,measurement,setting,value
CCOC(=O)[C@H](CCc1ccccc1)N[C@@H](C)C(=O)N1[C@H](C(=O)O)C[C@@H]2CCC[C@@H]21 [ramipril],development of diabetes,[1],reduced
same,"reduction in HbA10 levels, absolute difference",[2],0.2%
same,increase in fasting glucose,[3]; placebo 0.41 mmols,0.25 mmols
same,increase in fasting glucose,[3]; placebo 15.8 mg/dL,9.6 mg/dL
same,"New Diabetes With Glycated Hemoglobulin ≧ 110%, ULN, No. of patients",[4]; No new MA or ON,42
same,"New Diabetes With Glycated Hemoglobulin ≧ 110%, ULN, proportion of patients (in parentheses)",[4]; No new MA or ON,1.7
same,"New Diabetes With Oral Agents or Insulin, No. of patients",[4]; No new MA or ON,45
same,"New Diabetes With Oral Agents or Insulin, proportion of patients (in parentheses)",[4]; No new MA or ON,1.8
same,"New Diabetes With Oral Agents or insulin and Glycated Hemoglobulin ≧ 110%, ULN, No. of patients",[4]; No new MA or ON,30
same,"New Diabetes With Oral Agents or insulin and Glycated Hemoglobulin ≧ 110%, ULN, proportion of patients (in parentheses)",[4]; No new MA or ON,1.2
same,"New Diabetes, No. of patients",[4]; No new MA or ON,82
same,"New Diabetes, proportion of patients (in parentheses)",[4]; No new MA or ON,3.3
same,"New Diabetes With Glycated Hemoglobulin ≧ 110%, ULN, RR (85%) CI)",[4]; No new MA or ON,0.66 (0.48-0.98)
same,"New Diabetes With Oral Agents or Insulin, RR (85%) CI)",[4]; No new MA or ON,0.56 (0.39-0.81)
same,"New Diabetes With Oral Agents or insulin and Glycated Hemoglobulin ≧ 110%, ULN, RR (85%) CI)",[4]; No new MA or ON,0.60 (0.38-0.94)
same,"New Diabetes, RR (85%) CI)",[4]; No new MA or ON,0.67 (0.51-0.89)
same,"New Diabetes With Glycated Hemoglobulin ≧ 110%, ULN, No. of patients",[4]; No primary event,45
same,"New Diabetes With Glycated Hemoglobulin ≧ 110%, ULN, proportion of patients (in parentheses)",[4]; No primary event,1.8
same,"New Diabetes With Oral Agents or Insulin, No. of patients",[4]; No primary event,54
same,"New Diabetes With Oral Agents or Insulin, proportion of patients (in parentheses)",[4]; No primary event,2.2
same,"New Diabetes With Oral Agents or insulin and Glycated Hemoglobulin ≧ 110%, ULN, No. of patients",[4]; No primary event,32
same,"New Diabetes With Oral Agents or insulin and Glycated Hemoglobulin ≧ 110%, ULN, proportion of patients (in parentheses)",[4]; No primary event,1.3
same,"New Diabetes, No. of patients",[4]; No primary event,93
same,"New Diabetes, proportion of patients (in parentheses)",[4]; No primary event,3.8
same,"New Diabetes With Oral Agents or Insulin, RR (85%) CI)",[4]; No primary event,0.58 (0.42-0.82)
same,"New Diabetes With Oral Agents or insulin and Glycated Hemoglobulin ≧ 110%, ULN, RR (85%) CI)",[4]; No primary event,0.51 (0.33-0.78)
same,"New Diabetes, RR (85%) CI)",[4]; No primary event,0.69 (0.53-0.91)
same,"New Diabetes With Glycated Hemoglobulin ≧ 110%, ULN, No. of patients",[4]; With new MA or ON,10
same,"New Diabetes With Glycated Hemoglobulin ≧ 110%, ULN, proportion of patients (in parentheses)",[4]; With new MA or ON,2.8
same,"New Diabetes With Oral Agents or insulin and Glycated Hemoglobulin ≧ 110%, ULN, No. of patients",[4]; With new MA or ON,6
same,"New Diabetes With Oral Agents or insulin and Glycated Hemoglobulin ≧ 110%, ULN, proportion of patients (in parentheses)",[4]; With new MA or ON,1.7
same,"New Diabetes, No. of patients",[4]; With new MA or ON,20
same,"New Diabetes, proportion of patients (in parentheses)",[4]; With new MA or ON,5.8
same,"New Diabetes With Glycated Hemoglobulin ≧ 110%, ULN, RR (85%) CI)",[4]; With new MA or ON,0.47 (0.23-0.98)
same,"New Diabetes With Oral Agents or insulin and Glycated Hemoglobulin ≧ 110%, ULN, RR (85%) CI)",[4]; With new MA or ON,0.32 (0.13-0.79)
same,"New Diabetes, RR (85%) CI)",[4]; With new MA or ON,0.65 (0.38-1.12)
same,"New Diabetes With Oral Agents or Insulin, No. of patients",[4]; With new NA or ON,14
same,"New Diabetes With Oral Agents or Insulin, proportion of patients (in parentheses)",[4]; With new NA or ON,3.9
same,"New Diabetes With Oral Agents or Insulin, RR (85%) CI)",[4]; With new NA or ON,0.61 (0.32-1.16)
same,"New Diabetes With Glycated Hemoglobulin ≧ 110%, ULN, No. of patients",[4]; With primary event,7
same,"New Diabetes With Glycated Hemoglobulin ≧ 110%, ULN, proportion of patients (in parentheses)",[4]; With primary event,1.9
same,"New Diabetes With Oral Agents or Insulin, No. of patients",[4]; With primary event,5
same,"New Diabetes With Oral Agents or Insulin, proportion of patients (in parentheses)",[4]; With primary event,1.3
same,"New Diabetes With Oral Agents or insulin and Glycated Hemoglobulin ≧ 110%, ULN, No. of patients",[4]; With primary event,4
same,"New Diabetes With Oral Agents or insulin and Glycated Hemoglobulin ≧ 110%, ULN, proportion of patients (in parentheses)",[4]; With primary event,1.1
same,"New Diabetes, No. of patients",[4]; With primary event,9
same,"New Diabetes, proportion of patients (in parentheses)",[4]; With primary event,2.4
same,"New Diabetes With Glycated Hemoglobulin ≧ 110%, ULN, RR (85%) CI)",[4]; With primary event,0.59 (0.24-1.43)
same,"New Diabetes With Oral Agents or Insulin, RR (85%) CI)",[4]; With primary event,0.42 (0.15-1.14)
same,"New Diabetes With Oral Agents or insulin and Glycated Hemoglobulin ≧ 110%, ULN, RR (85%) CI)",[4]; With primary event,0.54 (0.17-1.72)
same,"New Diabetes, RR (85%) CI)",[4]; With primary event,0.48 (0.21-0.98)
same,"patients diagnosed to have diabetes and glycated hemoglobin of 110% or more above upper limit of normal, %",[4]; ramipril group,1.8%
same,"patients with new diabetes meeting all criteria, %",[4]; ramipril group,1.3%
same,"patients with new diabetes receiving an oral glucose lowering agent or insulin, %",[4]; ramipril group,2.1%
same,"individuals who reported a new diagnosis of diabetes, %",[4]; [6],3.6%
same,"individuals who reported a new diagnosis of diabetes, No.",[4]; [6],102 and One hundred and two
same,relative risk of diabetes diagnosis with glycated hemoglobin of 110% or more of ULN,[4]; ramipril vs placebo,0.60
same,relative risk of new diabetes meeting all criteria,[4]; ramipril vs placebo,0.51
same,relative risk of new diabetes with oral glucose lowering agent or insulin,[4]; ramipril vs placebo,0.56
same,relative risk of new diagnosis of diabetes,[4]; ramipril vs placebo,0.66
same,No. With Diabetes,[4]; subgroup,39
same,(%) With Diabetes,[4]; [7],(5.8) %
same,No. With Diabetes,[4]; [7],63
same,(%) With Diabetes,[4]; subgroup Body mass index ≦7.7 Kg/m^2,(2.2) %
same,(%) With Diabetes,[4]; subgroup Not taking diuretics,(3.4) %
same,No. With Diabetes,[4]; subgroup Not taking diuretics,84
same,(%) With Diabetes,[4]; subgroup Not taking β-blocker,(3.3) %
same,No. With Diabetes,[4]; subgroup Not taking β-blocker,50
same,(%) With Diabetes,[4]; subgroup Taking diuretics,(5.0) %
same,No. With Diabetes,[4]; subgroup Taking diuretics,18
same,(%) With Diabetes,[4]; subgroup Taking β-blocker,(4.0) %
same,No. With Diabetes,[4]; subgroup Taking β-blocker,52
same,(%) With Diabetes,[4]; subgroup Waist-hip ratio >0.93,(4.4) %
same,No. With Diabetes,[4]; subgroup Waist-hip ratio >0.93,63
same,(%) With Diabetes,[4]; subgroup Waist-hip ratio ≦0.93,(2.8) %
same,No. With Diabetes,[4]; subgroup Waist-hip ratio ≦0.93,39
same,(%) With Diabetes,[4]; subgroup With hypertension,(4.2) %
same,No. With Diabetes,[4]; subgroup With hypertension,49
same,(%) With Diabetes,[4]; subgroup With microalbuminuria,(4.2) %
same,No. With Diabetes,[4]; subgroup With microalbuminuria,17
same,(%) With Diabetes,[4]; subgroup Without hypertension,(3.2) %
same,No. With Diabetes,[4]; subgroup Without hypertension,53
same,(%) With Diabetes,[4]; [8],(3.5) %
same,No. With Diabetes,[4]; [8],85
same,relative risk for diabetes,"[4]; subgroup who never took diuretics or β-blockers during the study, ramipril vs placebo",0.62
same,"myocardial infarction, strokes, death, and the development of diabetic nephropathy",[5],reduces
Vitamin E,effect on diabetes,[4]; 400 IU Vitamin E vs placebo,did not differ

# — patent US20050065203A1, “Method of reducing type 2 diabetes in high risk patients” (priority 2001, published 2005)
